The source of these data is patent US20160083391A1, “TRICYCLIC PIPERAZINE DERIVATIVE” (Sunovion Pharmaceuticals Inc., priority 2014, published 2016).

In the test the test system is PDE1. In words: In vitro HTRF PDE1 inhibition assay. Type of test: biochemical. Conditions: HTRF cGMP assay, 100 nM cyclic GMP, PDE (1A3, 1B or 1C) with calmodulin, 45 minutes at 37° C.; isoform of the tabulated values not stated. Put shortly: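 HTRF cGMP competition assay: PDE1A3, 1B or 1C with calmodulin acting on 100 nM cGMP in 1% DMSO, pH 7.4 buffer with Ca2+ and Mg2+, 45 min at 37 °C. Remaining cGMP detected with d2-cGMP and anti-cGMP cryptate (665/615 nm); IC50 reported as banded categories.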
(In TR-FRET formats the signal depends on donor and acceptor labels being close together.)

Where only a bound is given, the exact number is not on record here.

As usually defined, the IC50 is the midpoint of a concentration-inhibition curve. On to `CCCn1ncc2c(=O)n3c(nc21)CN(Cc1ccc2c(c1)OCO2)CC3` [Compound I-255, 8-(Benzo[d][1,3]dioxol-5-ylmethyl)-1-propyl-6,7,8,9-tetrahydropyrazino[1,2-a]pyrazolo[3,4-d]pyrimidin-4(1H)-one], for which the IC50 is 1000 to 10000 nM.

Turning to `COCCn1ncc2c(=O)n3c(nc21)CN(c1ccc(Cl)cc1)CC3` [Compound I-256, 8-(4-Chlorophenyl)-1-(2-methoxyethyl)-6,7,8,9-tetrahydropyrazino[1,2-a]pyrazolo[3,4-d]pyrimidin-4(1H)-one], the IC50 was in the range of 1000 to 10000 nM.

Take `COCCn1ncc2c(=O)n3c(nc21)CN(c1ccc(Cl)c(Cl)c1)CC3` [Compound I-257, 8-(3,4-Dichlorophenyl)-1-(2-methoxyethyl)-6,7,8,9-tetrahydropyrazino[1,2-a]pyrazolo[3,4-d]pyrimidin-4(1H)-one]: the IC50 was 1000 to 10000 nM.

In the case of `O=c1n2c(nc3c(C4CCCC4)ncn13)CN(Cc1ccc(Cl)cc1)CC2` [Compound I-258, 6-(4-Chlorobenzyl)-3-cyclopentyl-7,8-dihydro-5H-imidazo[1,5-a]pyrazino[2,1-d][1,3,5]triazin-10(6H)-one], the IC50 is < 1000 nM.
